Results reported in PMC12390684 (Viruses, 2025).

Biological target: IN-GCN2 interaction (6xHis-IN / GST-GCN2) (UniProt P04585+Q9P2K8)
Assay: biochemical
Format: binding, HIV-1 IN; human GCN2
Conditions: for IN-GCN2 interaction (%): screen, single dose 100 µM, single replicate, residual AlphaLISA signal normalized to DMSO control; for AlphaLISA signal in dose-response: compared to DMSO

Chain of IN-GCN2 interaction (6xHis-IN / GST-GCN2) (Q9P2K8 192-1024, other chains not shown): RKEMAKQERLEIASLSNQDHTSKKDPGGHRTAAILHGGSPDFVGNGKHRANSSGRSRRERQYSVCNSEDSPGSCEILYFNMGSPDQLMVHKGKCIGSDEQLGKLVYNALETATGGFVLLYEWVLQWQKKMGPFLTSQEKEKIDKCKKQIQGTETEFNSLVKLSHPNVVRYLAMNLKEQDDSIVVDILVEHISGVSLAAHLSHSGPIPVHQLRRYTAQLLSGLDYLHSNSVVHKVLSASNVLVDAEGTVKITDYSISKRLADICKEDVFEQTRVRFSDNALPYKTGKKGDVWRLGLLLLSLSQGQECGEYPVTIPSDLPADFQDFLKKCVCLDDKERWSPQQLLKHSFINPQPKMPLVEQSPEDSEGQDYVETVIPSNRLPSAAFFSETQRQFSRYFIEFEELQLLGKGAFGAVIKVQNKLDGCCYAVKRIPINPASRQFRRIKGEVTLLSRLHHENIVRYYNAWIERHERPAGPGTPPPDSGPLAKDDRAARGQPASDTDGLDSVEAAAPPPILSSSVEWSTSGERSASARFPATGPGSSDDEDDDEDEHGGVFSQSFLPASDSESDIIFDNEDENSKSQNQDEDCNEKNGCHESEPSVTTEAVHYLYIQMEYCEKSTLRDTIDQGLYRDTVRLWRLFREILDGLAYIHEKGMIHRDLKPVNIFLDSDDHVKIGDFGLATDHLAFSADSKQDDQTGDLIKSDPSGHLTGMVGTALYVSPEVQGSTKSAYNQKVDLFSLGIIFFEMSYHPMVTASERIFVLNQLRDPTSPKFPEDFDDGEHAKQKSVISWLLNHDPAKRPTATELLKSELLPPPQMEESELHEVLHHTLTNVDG

Compound | IN-GCN2 interaction (%) | other results
N#Cc1cn([C@@H]2O[C@H](CO)[C@@H](O)[C@H]2O)c2ncnc(N)c12 [NSC63701] | – | IN-GCN2 interaction (%) (listed as 63701): 116.97%
CC[C@H]1OC(=O)[C@H](C)[C@@H](OC2CC(C)(OC)C(O)C(C)O2)[C@H](C)[C@@H](OC2OC(C)CC(N(C)C)C2OC(=O)CCC2CCCC2)[C@](C)(O)C[C@@H](C)C(=O)[C@H](C)[C@@H](O)[C@]1(C)O (stereo partly drawn) [NSC63946] | 43.14% | –
CC(C)[C@]12CC(=O)[C@@H](C)[C@H]1C2 [NSC67392] | 80.58% | –
CC[C@]1(O)C[C@H]2CN(CCc3c([nH]c4ccccc34)[C@@](C(=O)OC)(c3cc4c(cc3OC)N(C=O)[C@H]3[C@@](O)(C(=O)OC)[C@H](OC(C)=O)[C@]5(CC)C=CCN6CC[C@]43[C@@H]65)C2)C1 [NSC67574] | 113.01% | –
COc1ccc2[nH]c3c(C)c4ccncc4c(C)c3c2c1 [NSC69187] | 42.76% | –
CC1=C(O)C(=O)C=C2C1=CC=C1[C@@]2(C)CC[C@@]2(C)[C@@H]3C[C@](C)(C(=O)O)CC[C@]3(C)CC[C@]12C [NSC70931] | 100.77% | –
Cc1c2ccncc2c(C)c2c1[nH]c1ccccc12 [NSC71795] | 107.18% | –
COC(=O)[C@@H]1[C@H]2C[C@@H]3c4[nH]c5ccccc5c4CCN3C[C@@H]2CC[C@@H]1O [NSC72116] | 99.30% | –
COC(=O)[C@H]1[C@H]2C[C@@H]3c4[nH]c5ccccc5c4CCN3C[C@H]2C[C@@H](OC(=O)c2cc(OC)c(OC)c(OC)c2)[C@@H]1OC [NSC72138] | 30.11% | –
COC(=O)C1=COC(C)C2CN3CCc4c([nH]c5cc(OC)c(OC)cc45)C3CC12.O=C(O)CC(O)(CC(=O)O)C(=O)O (stereo not drawn) [NSC72715] | 63.54% | –
C[N+]1([O-])[C@@H]2CC[C@H]1CC(OC(=O)C(CO)c1ccccc1)C2 (stereo partly drawn) [NSC72861] | 92.58% | –
COc1ccc2c(c1)[C@@]13CCN4CC5=CCO[C@H]6CC(=O)N2[C@H]1[C@H]6[C@H]5C[C@H]43 [NSC72862] | 85.38% | –
COc1cc2c(cc1OC)C13CCN4CC5CCOC6CC(=O)N2C1C6C5CC43 (stereo not drawn) [NSC72917] | 90.85% | –
N=C(N)CCNC(=O)C1CCC(N)=N1 (stereo not drawn) [NSC72942] | 100.21% | –
COc1cc(OC)c(C(=O)/C=C/c2ccc(OC)c(OC)c2)c(OC)c1 [NSC75527] | 89.20% | –
COc1ccc2c(=O)oc3c(OC)cc(CCN(C)C)c4c(=O)oc1c2c34 [NSC76022] | – | AlphaLISA signal in dose-response (at 33 µM): 120%; AlphaLISA signal in dose-response (at 100 µM): 200%
CC[C@@H](O)C[C@H]1CCC[C@@]2(C[C@@H]3OC(=O)/C=C/[C@@](C)(O)[C@@H](O)[C@H](C)[C@@H](O)[C@H](OC4CCC(N(C)C)C(C)O4)[C@@H](O)[C@](C)(O)CCCCC/C=C/[C@@H]4CC(C)(C)O[C@@]4(O)C[C@H](O2)[C@H]3C)O1 (stereo partly drawn) [NSC76627] | 52.50% | –
CC1=C[C@H](O)[C@@H](O)[C@]2(C)[C@H]3[C@@]4(O)OC[C@@]35[C@@H](C[C@@H]12)OC(=O)C[C@H]5[C@@H](C)[C@H]4O [NSC79404] | 87.44% | –
COc1ccc2c3c([nH]c2c1)[C@H]1C[C@H]2[C@H](C[C@@H](O)[C@H](OC)[C@H]2C(=O)O)CN1CC3 [NSC81463] | 97.85% | –
CC1(C)Oc2cc3oc(=O)ccc3c3c2C2C1CCC(C)(O3)C2O (stereo not drawn) [NSC83433] | 78.75% | –
COc1c2c(c3c(c1CCC(=O)O)OC(C)(C)C=C3)OC(C)(C)C=C2 [NSC83436] | 100.62% | –

Compound | IN-GCN2 interaction (%) | other results
C[C@]12CCC(=O)[C@](C)(CO)[C@@H]1CC[C@@]13C[C@@H](CC[C@@H]12)[C@@H](C(=O)O)C3 [NSC83439] | 107.59% | –
C=C1C(=O)O[C@@H]2[C@H]1CC[C@H](C)[C@@H]1C=CC(=O)[C@@]21C [NSC85235] | 40.36% | –
C=C1C(=O)O[C@@H]2C[C@@H](C)[C@@H]3C=CC(=O)[C@@]3(C)[C@@H](O)[C@H]12 [NSC85236] | 117.15% | –
C=C1C(=O)O[C@@H]2[C@H]1CC[C@H](C)[C@]1(O)C=CC(=O)[C@@]21C [NSC85239] | 120.23% | –
CN(N=O)C(=O)N[C@@H](C=O)[C@@H](O)[C@H](O)[C@H](O)CO [NSC85998] | 75.18% | –
COc1cc(C)c2c(c1C=O)Oc1c(c(C)c(O)c3c1C(O)OC3=O)OC2=O (stereo not drawn) [NSC87511] | 159.91% | –
CC1=C(O)C(=O)C(C2=C(O)C(=O)C(C)=C(O)C2=O)=C(O)C1=O [NSC88466] | 52.93% | –
C[C@H]1CCC/C=C/[C@@H]2C[C@H](O)C[C@H]2[C@H](O)/C=C/C(=O)O1 [NSC89671] | 129.13% | –
CC(C)[C@@](O)(C(=O)OCC1=CCN2CC[C@H](O)[C@@H]12)[C@H](C)O [NSC89937] | 65.06% | –
CC[C@]12CN3CCc4c([nH]c5ccccc45)[C@@](C(=O)OC)(c4cc5c(cc4OC)N(C)[C@H]4[C@@](O)(C(=O)OC)[C@H](OC(C)=O)[C@]6(CC)C=CCN7CC[C@]54[C@@H]76)C[C@@H](C3)[C@H]1O2 [NSC90636] | 49.62% | –
O=C1C=C([C@@H]2O[C@H](CO)[C@@H](O)[C@H]2O)C(=O)N1 [NSC93047] | 117.57% | –
C[C@]12CC[C@H]3[C@@H](CC[C@]4(O)C[C@@H](O)CC[C@]34/C=N/O)[C@@]1(O)CC[C@@H]2C1=COC(=O)C1 [NSC93373] | 116.21% | –
COc1cc2c3cc1Oc1c(O)c(OC)cc4c1[C@H](Cc1ccc(cc1)Oc1cc(ccc1O)C[C@H]3N(C)CC2)N(C)CC4 [NSC93674] | 63.45% | –
CC[C@@]1(O)C(=O)OCc2c1cc1n(c2=O)Cc2cc3ccccc3nc2-1 [NSC94600] | – | IN-GCN2 interaction (%) (listed as 94600): 48.96%
C[C@H]1O[C@@H](O[C@H]2[C@@H](O)C[C@H](O[C@H]3[C@@H](O)C[C@H](O[C@H]4CC[C@@]5(C)[C@H](CC[C@@H]6[C@@H]5CC[C@]5(C)[C@@H](C7=CC(=O)OC7)[C@@H](O)C[C@]65O)C4)O[C@@H]3C)O[C@@H]2C)C[C@H](O)[C@@H]1O [NSC95099] | 127.68% | –
CC(=O)OC1CCC2(C)C(=CCC3C2CCC2(C)C3CC3OC4(CCC(C)CN4)C(C)C32)C1 (stereo not drawn) [NSC96021] | 132.69% | –
Cc1cc2nc3[nH]c(=O)[nH]c(=O)c3nc2cc1C [NSC96911] | 89.81% | –
O=C1CC=C2C3CC4N(CCC45c4ccccc4N1C25)C/C3=C\CO (stereo not drawn) [NSC99791] | 109.54% | –
O=C1C[C@@H]2OCC=C3CN4CC[C@]56c7ccccc7N1[C@H]5[C@H]2[C@H]3C[C@]46O [NSC99792] | 109.08% | –
COc1cc2c(cc1OC)[C@@]13CCN4CC5=CCO[C@H]6CC(=O)N2[C@H]1[C@H]6[C@H]5C[C@]43O [NSC99794] | 103.59% | –
Oc1ccc(Cc2nccc3cc(O)c(O)cc23)cc1O [NSC99799] | 58.53% | –

Compound | IN-GCN2 interaction (%) | other results
N#Cc1cn([C@@H]2O[C@H](CO)[C@@H](O)[C@H]2O)c2ncnc(N)c12 [NSC99843] | – | IN-GCN2 interaction (%) (listed as 99843): 116.98%
C[C@H]1O[C@H](OC2[C@@H](O)[C@@H](O)C(O)[C@H](O)[C@H]2O)[C@@H](N)C[C@@H]1N=C(N)C(=O)O (stereo partly drawn) [NSC100858] | 98.15% | –
CC[C@@]1(O)C(=O)OCc2c1cc1n(c2=O)Cc2cc3ccccc3nc2-1 [NSC100880] | – | IN-GCN2 interaction (%) (listed as 100880): 95.24%
Nc1ncn([C@@H]2O[C@H](CO)[C@@H](O)[C@H]2O)c(=O)n1 [NSC102816] | 106.78% | –
C=C1C(=O)O[C@H]2[C@H]1[C@H](OC(=O)/C(C)=C\C)C[C@]1(CO1)[C@@H]1[C@H](OC(C)=O)C=C(C)[C@]21O [NSC104943] | 118.84% | –
CCCCC[C@@H](O)[C@H]1C(=O)O[C@H](C)[C@@H](O)/C=C/C=C/C=C/C=C/C=C(\C)[C@@H](O)[C@H](O)[C@H](O)C[C@H](O)C[C@H](O)C[C@H](O)C[C@H](O)C[C@@H]1O [NSC105388] | 86.99% | –
NC(=S)c1cn(C2OC(CO)C(O)C2O)c2ncnc(N)c12 (stereo not drawn) [NSC105827] | 100.77% | –
O=c1[nH]cnc2c([C@@H]3O[C@H](CO)[C@@H](O)[C@H]3O)[nH]nc12 [NSC106486] | 77.11% | –
COc1ccc(-c2oc3cc(O)c(OC)c(O)c3c(=O)c2OC)cc1O [NSC106969] | 98.61% | –
COC(=O)c1ccc(O)c2nc3c(C=O)c(O)cc(O)c3nc12 [NSC106995] | 28.53% | –
CC(CCC/C=C/CCCN(C)C(=N)N)CC(C)C1OC(=O)C(C)C(O)/C=C/C(C)C(O)C(C)C(O)C(C)C(O)CCCC(O)CC2(O)OC(CC(OC(=O)CC(=O)O)CC(O)CC(O)C(C)C(O)/C=C/C=C/C1C)CC(O)C2O (stereo not drawn) [NSC107041] | 57.24% | –
Cc1ccc(S(=O)(=O)NNC(=O)c2cc(C)c(C)cc2N)cc1 [NSC107453] | 88.25% | –
CCC1CN(C)C2Cc3c([nH]c4ccccc34)C(=O)CC1C2C(=O)OC (stereo not drawn) [NSC108088] | 78.52% | –
N=C1C=C(N)C(=O)c2[nH]c(=O)ccc21 [NSC111041] | 43.78% | –
C[C@@H]1C[C@@H]2CCCC(O)=C2C(=O)O1 [NSC112906] | 126.27% | –
O=C1NC(O)CCN1[C@@H]1O[C@H](CO)[C@@H](O)[C@H]1O (stereo partly drawn) [NSC112907] | 123.97% | –
CC1C(=O)OC2CCN3CC4OC4(COC(=O)C(C)(O)C1(C)O)C23 (stereo not drawn) [NSC113087] | 97.53% | –
CC(=O)O[C@@H]1C[C@H]2C(C)(C)C(=O)C=C[C@]2(C)[C@H]2CC[C@@]3(C)[C@H](c4ccoc4)OC(=O)[C@H]4O[C@]43[C@@]21C [NSC113497] | 59.74% | –
COc1cc(/C=N\O)nc(-c2ccccn2)c1 [NSC114341] | 45.21% | –
CC[C@H](C)c1occ2c(O)c(C(=O)O)c(=O)cc-2c1C [NSC114344] | 113.54% | –
